Laboratory results as given in the METLIN SMRT retention time set (Domingo-Almenara et al. 2019).

Assay: gradient 5% acetonitrile 3 min, to 50% in 2 min, to 85% in 15 min, held 3 min, 100 µL/min
Settings: column: Zorbax Extend-C18 2.1 x 50 mm; eluents: water / acetonitrile, 0.1% formic acid
Procedure, shortened: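 Pure standards were run in mixtures of ~100 molecules by HPLC coupled to a quadrupole time-of-flight mass spectrometer. The column was a Zorbax Extend-C18 (2.1 × 50 mm, 1.8 μm) at 100 μL/min, with water and acetonitrile each containing 0.1% formic acid, in positive and negative ionization mode. Dead and dwell volumes were 40 μL and 900 μL. Retention time was taken from computationally picked adduct peaks, each manually inspected, with data collected over 3 months.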

For COc1ccc(CNC(=O)C2CCCN(c3cnc4nc(C)c(C)nc4c3)C2)cc1 (centres undefined), the RP-LC retention time was 710 s.

Work on CCCNC(=O)N1CCN(c2nc3ccccc3n(Cc3ccc(C)cc3)c2=O)CC1 yielded an RP-LC retention time of 978 s.

Work on CCOCCOC1CCN(C(=O)c2ccoc2)CC1 yielded an RP-LC retention time of 679 s.

Compound COc1ccccc1C(=O)NC1CCN(c2cc(C)cc(C)c2)C1=O (centres undefined) has an RP-LC retention time of 928 s.

For Cc1cnc(C2CC2)n1CCNS(=O)(=O)Cc1ccccc1F, the RP-LC retention time was 619 s.

Work on CC(C)c1nc(-c2ccc(OC3CCN(S(=O)(=O)c4cn(C)cn4)C3)cc2)no1 (centres undefined) yielded an RP-LC retention time of 853 s.

Compound Cc1ccc(N2C(=O)C3N=NN(Cc4nc(-c5ccccc5Br)no4)C3C2=O)cc1F (centres undefined) has an RP-LC retention time of 1010 s.

In the case of Cn1c(=O)c(SCC(=O)NCCCc2ccccc2)nc2ccccc21, the RP-LC retention time is reported as 840 s.

With CN(C)C(=O)c1ccc2c(c1)n(Cc1ccccc1)c(=O)c1ccnn12 the RP-LC retention time was 768 s.

Work on CCSc1nc2ccc(NS(=O)(=O)c3ccc4c(c3)OCCO4)cc2s1 yielded an RP-LC retention time of 987 s.

Compound Nc1nc(-c2ccccc2)c(C(=O)c2ccccc2)s1 has an RP-LC retention time of 706 s.

In the case of O=C(NCCn1c(-c2ccncc2)nc2cccnc21)Nc1cccc(Cl)c1, the RP-LC retention time is reported as 645 s.

With Cc1ccccc1CNS(=O)(=O)c1cn(C(C)C)c2ncccc12 the RP-LC retention time was 960 s.

Work on CCCCNC(=O)C1CCN(c2nc(NC(C)=O)c(C(=O)N3CCCC3)s2)CC1 yielded an RP-LC retention time of 683 s.

In the case of O=C(CCc1c(-c2ccc(F)cc2)nc2ccccn12)NCc1ccc2c(c1)OCO2, the RP-LC retention time is reported as 655 s.

Compound CCOC(=O)c1c(C)[nH]c(CCC(=O)NCCN(C)C)c1C has an RP-LC retention time of 591 s.

Compound O=C(Nc1ccc(C(F)(F)F)cc1)c1cnc(-c2ccc(F)cc2)nc1-c1ccncc1 has an RP-LC retention time of 1070 s.

COC(=O)c1ccccc1NC(=O)C1CCCN(c2nnc(C)c3c(C)n(-c4ccccc4)nc23)C1 (centres undefined) gave an RP-LC retention time of 834 s.

For CCOc1ccccc1-c1noc(-c2nnn3c2COC(c2ccc(F)cc2)C3)n1 (centres undefined), the RP-LC retention time was 1130 s.

With CCCNC(=O)c1cnn(-c2ccc(-c3nc(C(C)(C)C)no3)cn2)c1C the RP-LC retention time was 1070 s.

In the case of CCn1c(=O)oc2cc(-c3noc(-c4ccc(OC)cc4)n3)ccc21, the RP-LC retention time is reported as 976 s.

Cc1ccc(CNC(=O)Cn2cnc3nc(N4CCC(C(=O)NC5CC5)CC4)sc3c2=O)cc1 showed an RP-LC retention time of 708 s.

For O=C(NCc1ccccn1)C1CCc2sc(C(=O)N3CCCCC3)cc2C1 (centres undefined), the RP-LC retention time was 506 s.

With CCCn1ccc2sc(C)c(C(=O)N(CC)Cc3ccccc3)c2c1=O the RP-LC retention time was 884 s.

With C=CCn1c2ccccc2c2nnc(SC(CC)C(=O)Nc3nc(-c4ccccc4)cs3)nc21 (centres undefined) the RP-LC retention time was 1190 s.

Cn1cnc2c1CN(C(=O)c1ccc(Br)o1)CC2 gave an RP-LC retention time of 563 s.

Compound O=C(NCC(F)(F)F)C1CCN(C(=O)COc2ccccc2)CC1 has an RP-LC retention time of 676 s.

Compound Cc1ccccc1NC(=O)C1CCCN(S(=O)(=O)c2cc(-c3noc(C4CCC4)n3)cs2)C1 (centres undefined) has an RP-LC retention time of 1130 s.

For CCOC(=O)c1noc2ncnc(N3CCN(c4cccc(Cl)c4)CC3)c12, the RP-LC retention time was 1150 s.

Compound COc1ccc(OC)c(NC(=O)Cn2c(C)cc(-c3nnc(C4CCC4)o3)c2C)c1 has an RP-LC retention time of 924 s.

With CC(C)Oc1ccc(-c2noc(CN3C(=O)COc4cc(C(C)(C)C)ccc43)n2)cc1 the RP-LC retention time was 1370 s.

CCOc1ccc(NC(=O)c2c(N3CCCC3=O)c3cc(OC)ccc3n2C)cc1 gave an RP-LC retention time of 984 s.

Work on Cc1cccc(NC(=O)Nc2cccc(-c3ccc(N4CCOCC4)nn3)c2)c1 yielded an RP-LC retention time of 714 s.

O=[N+]([O-])c1ccc2[nH]c3nc4ccccc4nc3c2c1 gave an RP-LC retention time of 876 s.

Work on O=C(CCc1ccccc1)NCCn1c(C(F)(F)F)nc2cccnc21 yielded an RP-LC retention time of 998 s.

For CC(=O)N1CCCC(c2nc(CNC(=O)C3CCC3)cs2)C1 (centres undefined), the RP-LC retention time was 631 s.

For COc1ccc(NS(=O)(=O)c2cc(-c3noc(C(=O)N4CCCC4)n3)sc2C)cc1OC, the RP-LC retention time was 842 s.

With NC(=O)[C@@H]1C[C@H](Oc2cccnc2)CN1C(=O)CCc1nc2ccccc2s1 the RP-LC retention time was 589 s.

With CCOC(=O)c1c(C)c(CCC(=O)NC(C)c2ccc3c(c2)OCCO3)n(C)c1C (centres undefined) the RP-LC retention time was 845 s.

CCS(=O)(=O)N1CCCc2cc(C(=O)Nc3ccc(Br)cc3)ccc21 showed an RP-LC retention time of 1030 s.

With O=c1c2nc(-c3ccccc3)cn2ccn1-c1cccc(Cl)c1 the RP-LC retention time was 852 s.

With Cc1nc(-c2cc(S(=O)(=O)NCc3cc(F)cc(F)c3)c(C)s2)cs1 the RP-LC retention time was 994 s.

Work on O=C(CSc1ccc(N2CCOCC2)nn1)Nc1ccc(F)cc1F yielded an RP-LC retention time of 669 s.

In the case of C=CCNC(=O)CN1C(=O)C2CCCCN2c2ccc(S(=O)(=O)N(C)C)cc21 (centres undefined), the RP-LC retention time is reported as 774 s.

With O=C(C1=NNc2ccccc2S1(=O)=O)N1CCCCCC1 the RP-LC retention time was 735 s.

Work on CCOc1ccccc1CNC(=O)C1CCN(Cc2cn(C)c3ccc(Cl)cc23)CC1 yielded an RP-LC retention time of 751 s.

Compound Cc1cc(C(=O)NC(C)C)c2cccc(Cl)c2n1 has an RP-LC retention time of 718 s.

O=C(CSc1nnc(-c2cccs2)o1)N1CCc2ccccc21 showed an RP-LC retention time of 875 s.

CCCS(=O)(=O)N1CCC(c2noc(-c3ccncc3)n2)C1 (centres undefined) gave an RP-LC retention time of 751 s.

CC(C)S(=O)(=O)c1ccc(CC(=O)N(Cc2cccs2)Cc2cccn2C)cc1 showed an RP-LC retention time of 877 s.

Compound CCCNC(=O)N1c2ccccc2NC2=C(C(=O)CC(c3ccco3)C2)C1c1ccc(OC)cc1 (centres undefined) has an RP-LC retention time of 805 s.

Compound Cc1ccc(F)c2c(=O)c3c([nH]c12)CCN(CC(=O)NC1CCCC1)C3 has an RP-LC retention time of 669 s.

Compound O=C(NCc1ccc2c(c1)OCO2)c1ccc2c(c1)CC(=O)N2Cc1ccc(F)cc1 has an RP-LC retention time of 847 s.

CCn1c(C)c(CCC(=O)NC(C)C)c(=O)n2nc(-c3ccccc3)nc12 showed an RP-LC retention time of 706 s.

In the case of CCc1nnc(-c2ccc(S(=O)(=O)NC3CCCC3)o2)o1, the RP-LC retention time is reported as 815 s.

O=C(Cc1cccc(F)c1)N1CCC2(CC1)N=C(c1ccc(Cl)cc1)NO2 gave an RP-LC retention time of 912 s.

In the case of Cc1ccc2nc(-c3cccc(Br)c3)c(C)c(C(=O)O)c2c1, the RP-LC retention time is reported as 694 s.

For COCCNc1c(-c2cccc(F)c2)nc2sc(C(N)=O)c(C)n12, the RP-LC retention time was 696 s.

With COc1ccc(C(=O)Cn2nc3n(CC(C)C)c(=O)c4ccccc4n3c2=O)cc1OC the RP-LC retention time was 951 s.

O=C(C1CCCN1)N1CCC(OCc2nc(-c3cccnc3)no2)CC1 (centres undefined) gave an RP-LC retention time of 572 s.

In the case of COc1ccc(C)cc1NC(=O)N1CCC2(CC1)NC(=O)c1ccc(Cl)cc1N2C, the RP-LC retention time is reported as 884 s.

Cc1cc(=O)n(CC(=O)Nc2ccc3c(c2)OCO3)c(N2CCc3ccccc3C2)n1 gave an RP-LC retention time of 742 s.

In the case of COCCN1C(=O)[C@H]2CN(Cc3cc(OC)cc(OC)c3)C[C@H]2C1=O, the RP-LC retention time is reported as 598 s.

For CCOC(=O)c1cn(CC(=O)Nc2cc(F)ccc2F)nn1, the RP-LC retention time was 740 s.

CCn1nc(CNC(=O)c2cnccn2)c2ccccc21 showed an RP-LC retention time of 718 s.

Compound Cc1ccc(NC(=O)C2CCCN(c3cn[nH]c(=O)c3)C2)cc1 (centres undefined) has an RP-LC retention time of 679 s.

Compound O=C(Cn1c(=O)c2cc(-c3cccs3)nn2c2ncccc21)NCc1ccc(Cl)cc1 has an RP-LC retention time of 885 s.

In the case of O=C(c1cccs1)N1CCc2c([nH]c3ccccc23)C1c1ccc(Cl)cc1 (centres undefined), the RP-LC retention time is reported as 1220 s.

With Cn1c(-c2cccc(C(=O)NCc3cc(F)ccc3F)c2)nc2cccnc21 the RP-LC retention time was 726 s.

Cn1c(CCNC(=O)c2cn3ccccc3n2)nc2ccccc21 showed an RP-LC retention time of 556 s.

COc1ccc(OC)c(CNC(=O)Cn2ccc3ccc(-c4nnc(C)o4)cc32)c1 showed an RP-LC retention time of 770 s.

Work on CSc1ccc(CNC(=O)Cn2c(C)cc(C)c(C#N)c2=O)cc1 yielded an RP-LC retention time of 698 s.

O=C(Cc1cccs1)Nc1ccc(OCc2nnc(-c3ccccc3)o2)cc1 gave an RP-LC retention time of 879 s.

With Cc1ccc(NC(=O)C2CCN(c3nnc4ccc(Cl)cn34)CC2)c(F)c1 the RP-LC retention time was 749 s.

Fc1ccc(C(OCCCc2cnc[nH]2)c2ccc(F)cc2)cc1 gave an RP-LC retention time of 833 s.

CC(C)(OCc1nn(Cc2ccccc2)c2ccccc12)C(=O)O gave an RP-LC retention time of 937 s.

Work on COC(=O)c1sccc1NC(=O)Cn1c(C)cc(C)c(-c2nc(-c3cccc(Cl)c3)no2)c1=O yielded an RP-LC retention time of 1170 s.

Work on Cc1nn(C)c(C)c1S(=O)(=O)N1CCC2(CC1)c1[nH]c3ccccc3c1CCN2C yielded an RP-LC retention time of 668 s.

Cc1ccc(NC(=O)C(C)C2CCN(C(=O)Nc3ccc(F)cc3)CC2)cc1C (centres undefined) gave an RP-LC retention time of 928 s.

Compound Cc1oc2ccn(Cc3cccc(F)c3)c(=O)c2c1C(=O)NCc1ccc(F)cc1F has an RP-LC retention time of 954 s.

Compound O=C(C1CCN(c2ccc(Cl)cc2)C1=O)N1CCN(c2ccccn2)CC1 (centres undefined) has an RP-LC retention time of 634 s.

For O=C(O)[C@H](CC(=O)N1C[C@H]2CCCC[C@H]2C1)Cc1ccccc1, the RP-LC retention time was 915 s.

For O=C1CCN(C(=O)C2CCN(C(=O)C3CCC3)CC2)CCCCCCN1, the RP-LC retention time was 626 s.

With O=C(CN1C(=O)CCCc2cc(S(=O)(=O)N3CCCCC3)ccc21)NC1CCCCC1 the RP-LC retention time was 880 s.

Compound COc1ccc(OC)c(NC(=O)N2CCC(N3CCN(Cc4ccccc4)C(=O)C3=O)CC2)c1 has an RP-LC retention time of 746 s.

For Cc1cc2c(c(=O)n(-c3ccc(F)cc3)c(=O)n2CC(=O)Nc2ccccc2Cl)n1C, the RP-LC retention time was 858 s.

Compound O=C(NCCCN1CCOCC1)c1ccc(-c2ccc(N3CCCCC3)nn2)cc1 has an RP-LC retention time of 563 s.

Work on Clc1ccccc1C1Cn2cnc(-c3nc(-c4ccncc4)no3)c2CO1 (centres undefined) yielded an RP-LC retention time of 915 s.

In the case of Cc1ccc(C)c2sc(N(C)CC(=O)O)nc12, the RP-LC retention time is reported as 793 s.
